These results are taken from US9387231B2, “Compositions comprising a Brd4 antagonist and methods for the treatment of HIV” (THE CHILDREN'S HOSPITAL OF PHILADELPHIA, priority 2011, dated 2016).

What all share (format): cell-based
One assay relates to HIV-1 NL43. As to the kind of experiment: Viral integration in primary resting CD4 T-cells by Alu-PCR. The settings on record: NL43, 1 μM, T48 h. How it is done: To determine if JQ1(+) affects viral integration in primary resting CD4 T-cells, the cells were purified and infected with HIV-1 NL43 or mock control. The infected cells were then cultured in the presence of 1 μM of JQ1(+) or JQ1(−) for 48 hours. Cell pellets were collected at 0 hours and 48 hours after infection. DNA was isolated and the viral integration in resting CD4 T-cells was measured by Alu-PCR.

The test system of the next assay is HIV LTR. As to the kind of experiment: Reactivation of the HIV LTR in latently infected J-Lat clones (GFP by flow cytometry). The following applies: J-Lat clones, TNFα 20 ng/ml or PHA 1.5 μg/ml, 16 hours. On the procedure:
(§1) GFP expression was measured by flow cytometry. FIGS. 3B and 3C shown the percentage of cells positive for GFP (FIG. 3B) and the mean MFI of GFP (FIG. 3C) in latently infected cell lines, J-Lat clones 82, A72, A7, A2, and A1, at 16 hours after TNFα or PHA was added in the cultures in the presence of JQ1(+) or JQ1(−). […] GFP expression in cells was measured by flow cytometry and is indicated as percent of GFP+ cells in gated live cell populations. An average of 5 experiments is shown. * p<0.05, ** p<0.01, *** p<0.001. […] Average of 3 experiments is shown. * p<0.05. For FIG. 3F, J-Lat A2 and A72 cells were reactivated with TNFα (20 ng/ml) or HIV Tat protein (50 μg/ml) in the presence of JQ1(+) or JQ1(−) for 16-18 hours, and GFP expression in cells was measured by flow cytometry. One representative experiment is shown. In each dot plot, non-underlined numbers indicate percentage of GFP+ cells and underlined numbers indicate mean fluorescence of GFP (MFI).
(§2) Next, the effect of JQ1 on activation of the HIV LTR was tested using a latently infected Jurkat-derived cell clone, J-Lat clone A2. GFP expression in J-Lat clone A2 is induced upon reactivation with tumor necrosis factor-alpha (TNFα) or phytohaemagglutinin (PHA).
To further study the mechanism of how JQ1 drives reactivation of HIV latency, HIV latently infected T-cell lines—J-Lat clones A1, A2, A7, and A72—were utilized. The effect of JQ1(+) on reactivation of HIV latency in these cell lines were confirmed. TNFα (20 ng/ml) or PHA (1.5 μg/ml) was added to cultures of J-Lat clones in the presence of 1 μM JQ1(+) or JQ1(−). After 16 hours, expression of GFP was measured by flow cytometry. […] In the presence of HIV Tat, BET antagonism enhances Tat-driven transcription of the HIV LTR in J-Lat clones A2 and A72 (FIG. 3F; underlined numbers indicate mean GFP fluorescence, non-underlined numbers indicate percent of GFP+ cells). […] Displacement of Brd4 from chromatin by JQ1(+) may cause conformational change in the chromatin, exposing NF-κb binding sites, leading to increased HIV transcription and reactivation of latency.

A further assay has as its system HIV-1 LTR promoter. Nature of the assay: Activation of the HIV LTR in CEMss LTR-GFP reporter cells (GFP by flow cytometry). The following applies: CEMss LTR-GFP cells, 8 μg/ml HIV-1 Tat alone. How it is done: CEMss LTR-GFP cells were infected with NL43 and cultured in the presence of the BET antagonists JQ1(+) (1 μM) or the control enantiomer JQ1(−). GFP expression in cells was examined by flow cytometry. A representative of three experiments is shown. FIG. 2B provides a graph showing GFP expression in cells when cultured with different amounts of JQ1, as determined by flow cytometry. 0.25 μM of JQ1(+) was sufficient to dramatically increase the expression of GFP in NL43 infected CEMss LTR-GFP cells. FIGS. 2C and 2D show percentage of GFP expression (FIG. 2C) and mean fluorescence of GFP (MFI; FIG. 2D) in CEMss LTR-GFP cells cultured in the presence of JQ1(+) or JQ1(−) (1 μM), and different amount of HIV-1 Tat. FIG. 2E provides dot plots of CEMss LTR-GFP cells were cultured with increasing amounts of HIV Tat (0, 8, 16 or 32 μg/ml) in the presence of JQ1(+) or JQ1(−) (1 μM) for 1 day. Non-underlined numbers indicate percentage of GFP and underlined numbers indicate mean fluorescence of GFP (MFI).
as §1
BET antagonists also drive activation of the HIV LTR. Specifically, the effects of JQ1 on transcription from the HIV LTR were tested. CEMss LTR-GFP cells (a reporter cell line stably transfected with GFP under the control of the HIV-1 LTR promoter) were infected with NL43 and cultured in the presence of BET antagonists or controls. GFP expression was measured at days 0, 1, 2, 3, and 6 post-infection. GFP expression was higher in the presence of the BET inhibitor (JQ1) compared to controls (FIG. 2A). Further, by varying the amount of JQ1, it was determined that 0.25 μM of JQ1(+) was sufficient to dramatically increase Tat-driven HIV-1 transcription (FIG. 2B). CEMss LTR-GFP cells were also cultured in the presence of JQ1(+) or JQ1(−) (1 μM) and different amount of HIV-1 Tat (0-32 μg/ml). […] FIG. 2E provides dot plots of the experiments.
as §2
(In general: A flow cytometer gives signals particle by particle.)

Take `Cc1sc2c(c1C)C(c1ccc(Cl)cc1)=N[C@@H](CC(=O)OC(C)(C)C)c1nnc(C)n1-2` [JQ1(−)]: the provirus/cell with HIV-1 NL43 (Exp. 1, primary resting CD4 T-cells) amounted to 0.527 ± 0.064 provirus/cell; in the assay on HIV-1 NL43 (Exp. 2, primary resting CD4 T-cells) it was 0.400 ± 0.0009 provirus/cell.
As for TNFα, the “GFP expression (reactivation of latently infected cells)” value in the assay with HIV LTR is listed as “induced GFP expression”.

B1: HIV-1 Tat: HIV Tat protein added to reporter cell cultures (protein, UniProt P04608 1-86, looked up)
Protein Tat: MEPVDPRLEPWKHPGSQPKTACTNCYCKKCCFHCQVCFITKALGISYGRKKRRQRRRAHQNSQTHQASLSKQPTSQPRGDPTGPKE
On to B1, for which the “Expression of GFP (percentage)” value with HIV-1 LTR promoter was “activated”.
